Read-outs that look alike come from different tables or passages of the source.
Legend:
HCT-116 cells = experiment: HCT-116 cell proliferation assay (resazurin); type: cell-based; conditions: Homo sapiens
Experimental: HCT-116 cells (catalog #CCL-247) are obtained from the American Type Culture Collect (ATCC, Manassas, VA). Briefly, cells are grown in McCoy's 5A supplemented with 10% characterized fetal bovine serum (Invitrogen, Carlsbad, CA) and 1% Penicillin/Streptomycin/L-Glutamine at 37° C., 5% CO2, and 95% humidity. Cells are expanded until reaching 70-95% confluency at which point they are sub-cultured or harvested for assay use. A serial dilution of test compound is dispensed into a 384-well black clear bottom plate in triplicate. 375 cells are added per well in 50 μL complete growth medium in the 384-well plate. Plates are incubated for 67 to 72 h at 37° C., 5% CO2, and 95% humidity. At the end of the incubation, 40 μL of a […] solution of resazurin (Sigma, St. Louis, MO) in PBS is added to each well of the plate and plates are incubated for an additional 4 to 5 h at 37° C., 5% CO2, and 95% humidity. Plates are read on a Synergy2 or equivalent reader (Biotek, Winooski, VT) using an excitation of 540 nm and an emission of 600 nm. Data is analyzed using Prism software (Graphpad, San Diego, CA) to calculate IC50 values.

[1] = system: tubulin polymerization in HCT-116 cells; experiment: Cellular tubulin polymerization assay (pellet/supernatant a-tubulin, HCT-116 cells); type: cell-based
Experimental: HCT-116 cells (catalog #CCL-247) are obtained from the American Type Culture Collect (ATCC, Manassas, VA). Briefly, cells are grown in McCoy's 5A supplemented with 10% characterized fetal bovine serum (Invitrogen, Carlsbad, CA) and 1% Penicillin/Streptomycin/L-Glutamine at 37° C., 5% CO2, and 95% humidity. Cells are expanded until reaching 70-95% confluency at which point they are sub-cultured or harvested for assay use. 450000 cells are added per well in 1500 μL complete growth medium in a tissue culture treated, 12-well plate. Plates are incubated for 18 to 24 h at 37° C., 5% CO2, and 95% humidity. At the end of the incubation, 2000 μL of base culture media is added to each well, followed by a serial dilution of compound. Plates are incubated for an additional 1 h at 37° C., 5% CO2, and 95% humidity. Lysates are generated by the addition of 100 μL Lysis and Microtubule Stabilization Buffer 1 (LMS01, Cytoskeleton Inc, Denver, CO) supplemented with GTP (BST06, Cytoskeleton Inc), ATP (BSA04, Cytoskeleton Inc), and Protease Inhibitor Cocktail Stock (PIC02, Cytoskeleton Inc). Cells are scraped off wells using a rubber cell scraper and collected in a clean 96-well plate. Lysates are centrifuged at 1000×g, 37° C. for 10 min and supernatant fraction is placed into an additional 96-well plate. The remaining pellet fraction is reconstituted in 100 μL LMS01 buffer and sonicated for 10 min. Pellet and Supernatant fractions are probed for a-tubulin via western blot analysis on the Jess System or equivalent (Bio-techne, Minneapolis, MN). Data is analyzed using Prism software (Graphpad, San Diego, CA) to calculate IC50 values.

HPAF-II cells = experiment: HPAF-II cell proliferation assay (resazurin); type: cell-based; conditions: Homo sapiens
Experimental: HPAF-II cells (catalog #CRL-1997) are obtained from the American Type Culture Collect (ATCC, Manassas, VA). Briefly, cells are grown in Minimum Essential Media supplemented with 10% characterized fetal bovine serum (Invitrogen, Carlsbad, CA) and 1% Penicillin/Streptomycin/L-Glutamine at 37° C., 5% CO2, and 95% humidity. Cells are expanded until reaching 70-95% confluency at which point they are sub-cultured or harvested for assay use. A serial dilution of test compound is dispensed into a 384-well black clear bottom plate in triplicate. 750 cells are added per well in 50 μL complete growth medium in the 384-well plate. Plates are incubated for 115 to 120 h at 37° C., 5% CO2, and 95% humidity. At the end of the incubation, 40 μL of a […] solution of resazurin (Sigma, St. Louis, MO) in PBS is added to each well of the plate and plates are incubated for an additional 18 to 24 h at 37° C., 5% CO2, and 95% humidity. Plates are read on a Synergy2 or equivalent reader (Biotek, Winooski, VT) using an excitation of 540 nm and an emission of 600 nm. Data is analyzed using Prism software (Graphpad, San Diego, CA) to calculate IC50 values.

Porcine Brain Tubulin = molecular target: T1, Porcine Brain Tubulin (Sus scrofa, UniProt P02550+P02554); experiment: Biochemical tubulin polymerization assay
T1 construct: Porcine Brain Tubulin (T240); purchased Cytoskeleton, Inc T240; BK011P; host or cells: porcine brain

MiaPaca-2 cells = experiment: MiaPaca-2 cell proliferation assay (resazurin); type: cell-based; conditions: Homo sapiens, MIA PaCa-2
Experimental: MiaPaca-2 cells (catalog #CRL-1420) are obtained from the American Type Culture Collect (ATTC, Manassas, VA). Briefly, cells were grown in DMVEM supplemented with […] fetal bovine serum (Invitrogen, Carlsbad, CA), 2.5% New Zealand sourced horse serum and 1% Penicillin/Streptomycin/L-Glutamine at 37° C., […], and […]. Cells are expanded until reaching […] at which point they are sub-cultured or harvested for assay use. For assays completed in 96-well plates, a serial dilution of test compound is dispensed into a 96-well black clear bottom plate in triplicate. Three thousand cells are added per well in 200 μL complete growth medium in the 96-well plate. Plates are incubated for 67 to 72 h at 37° C., 5% CO2, and 95% humidity. At the end of the incubation, 40 μL of a […] solution of resazurin (Sigma, St. Louis, MO) in PBS is added to each well of the plate and plates are incubated for an additional 5 to 6 h at 37° C., 5% CO2, and 95% humidity. For 384-well assays, a threefold, 8-point serial dilution of compound was spotted column wise into a 384 well black, clear bottom, tissue culture treated plate using the Beckman Coulter Echo 650. Likewise, a threefold, 8-point serial dilution of cobimetinib was spotted row wise into the 384 well black, clear bottom plate containing compound. DMSO concentration was constant across all wells at 0.4%. Seven hundred fifty cells are added per well in 50 μL complete growth medium in each 384-well plate. Plates are incubated for 67 to 72 h at 37° C., 5% CO2, and 95% humidity. At the end of the incubation, 10 μL of a 440 μM solution of resazurin (Sigma, St. Louis, MO) in PBS is added to each well of the plate and plates are incubated for an additional 4 to 6 h at 37° C., 5% CO2, and 95% humidity. Plates are read on a Synergy2 or equivalent reader (Biotek, Winooski VT) using an excitation of 540 nm and an emission of 600 nm. Data is analyzed using Prism software (Graphpad, San Diego, CA) to calculate IC50 values.

C-Raf kinase = molecular target: T2, C-Raf kinase (Homo sapiens, UniProt P04049, Y340D/Y341D); experiment: Biochemical assay for C-Raf (coupled pyruvate kinase/lactate dehydrogenase)
T2 construct: C-Raf residues 306-end; Y340D, Y341D with N-; purchased Sigma

B-Raf kinase = molecular target: T3, B-Raf kinase (Homo sapiens, UniProt P15056); experiment: Biochemical assay for B-Raf (coupled pyruvate kinase/lactate dehydrogenase)
T3 construct: purchased Sigma

[2] = Table 5, HCT-116 cells, read-out: Tubulin Cellular
[3] = Table 5, read-out: Tubulin Biochem

T1 sequence (P02550 whole entry): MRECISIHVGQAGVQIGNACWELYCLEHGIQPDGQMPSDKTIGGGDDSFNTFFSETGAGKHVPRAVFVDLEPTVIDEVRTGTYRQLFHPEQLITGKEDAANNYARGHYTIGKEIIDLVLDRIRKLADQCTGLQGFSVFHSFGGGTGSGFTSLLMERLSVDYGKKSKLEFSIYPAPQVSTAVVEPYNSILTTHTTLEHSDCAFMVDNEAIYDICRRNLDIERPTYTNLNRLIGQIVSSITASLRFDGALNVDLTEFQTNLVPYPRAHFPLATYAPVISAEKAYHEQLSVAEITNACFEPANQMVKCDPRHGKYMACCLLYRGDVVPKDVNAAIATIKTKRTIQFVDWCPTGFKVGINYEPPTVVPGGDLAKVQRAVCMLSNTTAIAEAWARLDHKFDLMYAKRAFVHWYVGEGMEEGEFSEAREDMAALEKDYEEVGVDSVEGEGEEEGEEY
T1 sequence (P02554 whole entry): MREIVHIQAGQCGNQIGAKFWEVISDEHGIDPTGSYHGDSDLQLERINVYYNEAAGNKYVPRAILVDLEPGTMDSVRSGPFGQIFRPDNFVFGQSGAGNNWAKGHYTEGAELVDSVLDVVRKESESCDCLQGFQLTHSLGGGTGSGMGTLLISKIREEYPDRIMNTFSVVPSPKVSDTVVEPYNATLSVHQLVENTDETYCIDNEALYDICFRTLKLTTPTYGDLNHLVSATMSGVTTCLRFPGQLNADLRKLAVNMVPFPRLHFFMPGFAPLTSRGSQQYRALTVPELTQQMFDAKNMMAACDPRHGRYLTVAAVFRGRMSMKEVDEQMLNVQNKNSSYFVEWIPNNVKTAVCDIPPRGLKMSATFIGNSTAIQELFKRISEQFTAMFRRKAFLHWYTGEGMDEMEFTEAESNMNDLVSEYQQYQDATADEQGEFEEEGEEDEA
T2 sequence (P04049 307-648 Y340D/Y341D): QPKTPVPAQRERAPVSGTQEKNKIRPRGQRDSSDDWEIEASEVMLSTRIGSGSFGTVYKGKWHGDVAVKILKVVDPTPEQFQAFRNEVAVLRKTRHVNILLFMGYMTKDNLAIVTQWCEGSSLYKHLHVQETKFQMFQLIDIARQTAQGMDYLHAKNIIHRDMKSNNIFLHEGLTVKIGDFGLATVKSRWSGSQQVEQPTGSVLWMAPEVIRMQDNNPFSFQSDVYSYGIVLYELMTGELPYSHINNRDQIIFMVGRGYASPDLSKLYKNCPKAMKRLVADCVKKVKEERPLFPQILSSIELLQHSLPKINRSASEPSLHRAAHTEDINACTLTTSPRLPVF
T3 sequence (P15056 416-766): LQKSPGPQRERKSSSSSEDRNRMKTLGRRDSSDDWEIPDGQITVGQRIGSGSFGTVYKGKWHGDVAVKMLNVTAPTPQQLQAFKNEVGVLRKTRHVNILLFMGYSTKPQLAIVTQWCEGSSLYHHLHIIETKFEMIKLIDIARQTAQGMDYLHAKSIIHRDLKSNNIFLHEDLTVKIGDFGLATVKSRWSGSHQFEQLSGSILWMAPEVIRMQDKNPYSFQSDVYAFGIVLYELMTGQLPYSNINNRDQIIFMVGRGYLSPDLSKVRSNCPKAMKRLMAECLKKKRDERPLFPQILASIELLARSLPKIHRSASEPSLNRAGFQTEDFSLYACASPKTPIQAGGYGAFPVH

| IC50 (HCT-116 cells; Table 5, read-out: HCT-116) | IC50 (Porcine Brain Tubulin; [3]) | IC50 (MiaPaca-2 cells; Table 5, read-out: MiaPaca-2) | SMILES | IC50 (HPAF-II cells; Table 5, read-out: HPAF-II) | other results |
| --- | --- | --- | --- | --- | --- |
|  |  |  | CC(C)(C)c1[nH]cnc1/C=c1\[nH]c(=O)/c(=C/c2ccccc2)[nH]c1=O [plinabulin, reference compound] |  | IC50 ([1]; ratio of pellet to supernatant vs DMSO control, HCT-116 cells, read-out: IC50 of inhibition of tubulin polymerization, cellular tubulin assay (FIG. 2)): 5 nM |
| 1000 to 10000 nM | > 100000 nM | 1000 to 10000 nM | CC(C)(C)c1nc(-c2cccc(NS(=O)(=O)c3c(F)cccc3F)c2F)c(-c2ccnc(N)n2)s1 [Dabrafenib, reference compound] | 1000 to 10000 nM |  |
| 1000 to 10000 nM | > 100000 nM | 1000 to 10000 nM | CCCS(=O)(=O)Nc1ccc(F)c(C(=O)c2c[nH]c3ncc(-c4ccc(Cl)cc4)cc23)c1F [Vemurafenib, reference compound] | 1000 to 10000 nM |  |
| 1000 to 10000 nM | > 100000 nM | 1000 to 10000 nM | Cc1ccc(NC(=O)c2ccnc(C(F)(F)F)c2)cc1-c1cc(OCCO)nc(N2CCOCC2)c1 [Naporafenib, reference compound] | 1000 to 10000 nM | IC50 (C-Raf kinase; Table 5, read-out: CRAF): < 100 nM; IC50 (B-Raf kinase; Table 5, read-out: BRAF): < 100 nM |
|  |  |  | CNC(=O)c1cc(-c2cc(-c3cc(NC(=O)c4cnnc(C(F)(F)F)c4)ccc3C)ccn2)ccn1 [reference compound] |  | IC50 (HCT-116 cells; HCT-116, Table 4, read-out: HCT-116 IC50): 1000 to 10000 nM; IC50 (C-Raf kinase; Table 4, read-out: CRAF IC50): < 100 nM; IC50 (HPAF-II cells; HPAF-II, Table 4, read-out: HPAF-II IC50): 1000 to 10000 nM; IC50 (Porcine Brain Tubulin; Table 4, read-out: Tubulin Biochem IC50): > 100000 nM; IC50 (B-Raf kinase; Table 4, read-out: BRAF IC50): < 100 nM; IC50 (MiaPaca-2 cells; Table 4, read-out: MiaPaca-2 IC50): 1000 to 10000 nM |

| SMILES | IC50 (HCT-116 cells; Table 5, read-out: HCT-116) | IC50 (Porcine Brain Tubulin; [3]) | IC50 (MiaPaca-2 cells; Table 5, read-out: MiaPaca-2) | IC50 (HPAF-II cells; Table 5, read-out: HPAF-II) | other results |
| --- | --- | --- | --- | --- | --- |
| C[C@@H](NC(=O)c1ncnc(N)c1Cl)c1ncc(C(=O)Nc2cc(C(F)(F)F)c(Cl)cn2)s1 [Tovorafenib, reference compound] | 1000 to 10000 nM | > 100000 nM | 1000 to 10000 nM | 1000 to 10000 nM | IC50 [1, 2]: 1000 to 10000 nM |
| Cc1ccc(NC(=O)N2CC[C@@H](CC(F)(F)F)C2)cc1-c1cc(N[C@H](C)CO)nc(N2CCOCC2)c1 [Exarafenib, reference compound] | 500 to 1000 nM |  | 1000 to 10000 nM | 1000 to 10000 nM | IC50 [1, 2]: 1000 to 10000 nM |
